Like-named read-outs stand apart in the source and are kept apart here. Where a SMILES comes first, the peptide text is derived from it. [ ]: non-standard residue; d: D form. The star is where a group is joined. Bip(2'-Et,4'-O(CH2)4NH2) = CCc1cc(OCCCCN)ccc1-c1ccc(C[C@H](N)C(=O)O)cc1; Nva(5-(3,5-Me2Ph)) = Cc1cc(C)cc(CCC[C@H](N)C(=O)O)c1; Ala(1H-tetrazol-5-yl) = N[C@@H](Cc1nnn[nH]1)C(=O)O; αMePhe(2-F) = C[C@](N)(Cc1ccccc1F)C(=O)O; X3 = CC(C)(C(=O)*)c1ccn[nH]1; X1 = O=C(CCCCCc1cnc[nH]1)*; X2 = CC(C)(C(N)=O)C(=O)*; X4 = CC(C)(C(=O)O)C(=O)*
Tests used:
[1] = Plasma stability of payloads and linker-payloads, human plasma; assay type: in vitro ADME; settings: plasma, 2 μM, 37° C., read-out: Human plasma stability assay T½ (converted)
Experimental: The plasma stability of payloads and linker payloads of the disclosure were measured. For the assay, pooled frozen plasma (human, mouse or monkey) was thawed in cold water or a 37° C. water bath prior to experiment. Plasma was centrifuged at 4000 rpm for 5 min if any clots were observed, they were subsequently removed. If required, the pH was adjusted to 7.4±0.1. For the preparation of compounds and positive controls, a 1 mM intermediate solution was prepared by diluting 10 μL of their stock solution with 90 μL DMSO; a 1 mM intermediate solution of the positive control (Propantheline) was prepared by diluting 10 μL of its stock solution with 90 μL ultrapure water. […] 98 μL of plasma was spiked with 2 μL of dosing solution (100 μM) to achieve the final concentration of 2 μM in duplicate. Samples were then incubated at 37° C. in a water bath. […] At each time point, 400 μL of stop solution (200 ng/mL tolbutamide plus 200 ng/mL labetalol in 50% ACN/MeOH) was added to precipitate protein and mixed thoroughly. Sample plates were then centrifuged at 4,000 rpm for 10 min. An aliquot of supernatant (50 μL) was transferred from each well and mixed with 100 μL ultrapure water. The samples were then shaken at 800 rpm for approximately 10 min before submitting for LC-MS/MS analysis.

HEK293/CRE-Luc cells [2] = experiment: Luciferase reporter assay, HEK293/CRE-Luc cells without GLP1R (Example 17); assay type: cell-based, human; settings: HEK293/CRE-Luc cells without hGLP1R, payloads and linker-payloads; for EC50: read-out: EC50
Method in brief: (§1)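 HEK293 cells carrying a CRE-driven firefly luciferase reporter were exposed to 3-fold serial dilutions of payloads or linker-payloads (12 points, 0.2% DMSO final) for 4–6 h, then luminescence was read. EC50 came from a four-parameter logistic fit; S/N is top RLU over untreated wells, and relative potency and S/N are referenced to M2361.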

human GLP1R [3] = biological target: T1, human GLP1R (Homo sapiens, UniProt P43220); experiment: Luciferase reporter assay, HEK293/CRE-Luc/hGLP1R cells (Example 11); assay type: cell-based; set-up: engineered to express full-length human GLP1R, cynomolgus GLP1R; expressed in transfected cells; host or cells: HEK293/CRE-Luc; settings: Table 11; Experiment A
From the text: (§2) To test the activity of GLP1R agonist payloads, GLP1R agonist linker-payloads (LPs), and anti-GLP1R antibody tethered drug conjugates (ATDCs) of the disclosure, a cell-based cAMP responsive luciferase reporter assay was developed. To generate the assay cell line, the firefly luciferase gene was placed under the control of a cAMP response element (CRE) located upstream of a minimal promoter and transfected into HEK293 cells and referred to herein as HEK293/CRE-Luc cells.
(§3) Three-fold serial dilutions of free payloads or LPs were prepared in 100% DMSO, transferred to fresh assay media, and added to the cells at a final constant DMSO concentration of 0.2%. The last well in the plate served as a blank control containing only the assay media and 0.2% DMSO (untreated well) and was plotted as a continuation of the 3-fold serial dilution. Four to six hours later, luciferase activity was determined after the addition of One-Glo™ reagent (Promega, Cat #E6130) to each well. Relative light units (RLUs) were measured on an Envision luminometer (PerkinElmer) and EC50 values were determined using a four-parameter logistic equation over a 12-point dose response curve (GraphPad Prism). The signal to noise (S/N) was determined by taking the ratio of the highest RLU on the dose response curve to the RLU in the untreated wells.
GLP1R agonist linker payloads were conjugated to anti-hGLP1R antibodies via N-terminal heavy or light chain Q tags. Several resulting anti-GLP1R antibody tethered drug conjugates (ATDCs) were tested for activity in the HEK293/CRE-Luc/hGLP1R reporter assay as described above for the free GLP1R payload and linker-payload agonists.

human GLP1R [4] = biological target: T1, human GLP1R; experiment: Human GLP1R cAMP accumulation assay; assay type: cell-based; set-up: HEK293 cells over-expressing full length human GLP-1R were utilized; expressed in transfected cells; host or cells: HEK293 (HEK293/hGLP1R); settings: HEK293/hGLP1R cells; Table 4; read-out: cAMP EC50
Method in brief: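 cAMP accumulation measured after 30 min at 23° C, with 500 μM IBMX in HEPES-buffered HBSS plus 0.1% BSA, in HEK293 cells expressing full-length hGLP-1R. Levels read by D2-cAMP/antibody immunoassay via standard curve, scaled between low and high controls. EC50 fitted four-parameter over a 10-point curve.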

human GLP1R [5] = biological target: T1, human GLP1R; experiment: Luciferase reporter assay, HEK293/CRE-Luc/hGLP1R (Example 17); assay type: cell-based; set-up: engineered to express full-length human GLP1R, cynomolgus GLP1R; expressed in transfected cells; host or cells: HEK293/CRE-Luc; settings: HEK293/CRE-Luc/hGLP1R; for S/N: highest RLU / RLU of untreated wells; for EC50: payloads and linker-payloads, experiments A-E, M2361 repeated in each, read-out: EC50; for Relative Potency (% M2361 EC50) / Relative Signal:Noise (% M2361): relative to M2361 of the same experiment
Method in brief: as §1

[6] = Plasma stability of payloads (t½)
HEK293/CRE-Luc cells [7] = experiment: Luciferase reporter assay, HEK293/CRE-Luc cells without hGLP1R (Example 11); assay type: cell-based, human; settings: Table 11; Experiment A; no hGLP1R expression
From the text: as §2, §3

[8] = pH 7.4, tested time A (1 day per footnote)

T1 sequence (P43220 24-463): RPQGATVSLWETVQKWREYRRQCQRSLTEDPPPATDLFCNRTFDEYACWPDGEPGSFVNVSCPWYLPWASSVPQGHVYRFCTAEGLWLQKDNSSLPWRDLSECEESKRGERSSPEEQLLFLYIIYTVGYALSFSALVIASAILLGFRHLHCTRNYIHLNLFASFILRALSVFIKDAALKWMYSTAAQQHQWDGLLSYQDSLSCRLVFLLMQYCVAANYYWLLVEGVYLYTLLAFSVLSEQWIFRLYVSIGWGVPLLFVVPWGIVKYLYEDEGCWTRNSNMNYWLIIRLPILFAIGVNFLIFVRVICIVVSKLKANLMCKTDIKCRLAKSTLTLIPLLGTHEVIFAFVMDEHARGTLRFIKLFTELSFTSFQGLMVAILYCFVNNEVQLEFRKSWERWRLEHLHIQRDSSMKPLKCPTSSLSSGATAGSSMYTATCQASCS

Row | Compound | half-life at 2 µM [1, 8] | S/N (HEK293/CRE-Luc cells [2]) | EC50 (HEK293/CRE-Luc cells [2]) | EC50 (human GLP1R [3]) | HEK293/CRE-LUC/hGLP1R Relative Potency (% P8 EC50) (human GLP1R [3]) | HEK293/CRE-LUC/hGLP1R S/N (human GLP1R [3]) | EC50 (human GLP1R [4]) | S/N (human GLP1R [5]) | EC50 (human GLP1R [5]) | Relative Potency (% M2361 EC50) (human GLP1R [5]) | Relative Signal:Noise (% M2361) (human GLP1R [5]) | Plasma stability t½ [6] | EC50 (HEK293/CRE-Luc cells [7]) | HEK293/CRE-LUC S/N (HEK293/CRE-Luc cells [7]) | half-life at 2 µM ([1]; pH 7.4, tested time C (3 days))
1 | CCc1cc(OCCCCN)ccc1-c1ccc(C[C@H](NC(=O)[C@H](CC(=O)O)NC(=O)[C@H](CO)NC(=O)[C@@H](NC(=O)[C@](C)(Cc2ccccc2F)NC(=O)[C@@H](NC(=O)CNC(=O)[C@H](Cc2nn[nH]n2)NC(=O)C(C)(C)C(=O)O)[C@@H](C)O)[C@@H](C)O)C(=O)N[C@@H](CCCc2cc(C)cc(C)c2)C(N)=O)cc1 [P3] (X4-[Ala(1H-tetrazol-5-yl)]GT[αMePhe(2-F)]TSD[Bip(2'-Et,4'-O(CH2)4NH2)][Nva(5-(3,5-Me2Ph))]-NH2) | > 57.8 h | 1.2 | > 200 nM | 1.95 nM | 0.3% | 46.3 | 1.43 nM | 46.3 | 1.95 nM | 0.3% | 70.3% | >57.8 h | > 200 nM | 1.2 | 
2 | CCc1cc(OCCCCN)ccc1-c1ccc(C[C@H](NC(=O)[C@H](CC(=O)O)NC(=O)[C@H](CO)NC(=O)[C@@H](NC(=O)[C@](C)(Cc2ccccc2F)NC(=O)[C@@H](NC(=O)CNC(=O)[C@H](Cc2nn[nH]n2)NC(=O)C(C)(C)C(N)=O)[C@@H](C)O)[C@@H](C)O)C(=O)N[C@@H](CCCc2cc(C)cc(C)c2)C(N)=O)cc1 [P4] (X2-[Ala(1H-tetrazol-5-yl)]GT[αMePhe(2-F)]TSD[Bip(2'-Et,4'-O(CH2)4NH2)][Nva(5-(3,5-Me2Ph))]-NH2) | > 57.8 h | 1.6 | > 200 nM | 0.0837 nM | 6.3% | 66.9 | 0.156 nM | 66.9 | 0.0837 nM | 6.3% | 101.8% | >57.8 h | > 200 nM | 1.6 | 
3 | CCc1cc(OCCCCN)ccc1-c1ccc(C[C@H](NC(=O)[C@H](CC(=O)O)NC(=O)[C@H](CO)NC(=O)[C@@H](NC(=O)[C@](C)(Cc2ccccc2F)NC(=O)[C@@H](NC(=O)CNC(=O)[C@H](Cc2nn[nH]n2)NC(=O)C(C)(C)c2ccn[nH]2)[C@@H](C)O)[C@@H](C)O)C(=O)N[C@@H](CCCc2cc(C)cc(C)c2)C(N)=O)cc1 [P6] (X3-[Ala(1H-tetrazol-5-yl)]GT[αMePhe(2-F)]TSD[Bip(2'-Et,4'-O(CH2)4NH2)][Nva(5-(3,5-Me2Ph))]-NH2) | > 57.8 h | 1.0 | > 200 nM | 0.602 nM | 0.9% | 60.7 | 0.853 nM | 60.7 | 0.602 nM | 0.9% | 92.3% | >57.8 h | > 200 nM | 1.0 | 
4 | CCc1cc(OCCCCN)ccc1-c1ccc(C[C@H](NC(=O)[C@H](CC(=O)O)NC(=O)[C@H](CO)NC(=O)[C@@H](NC(=O)[C@](C)(Cc2ccccc2F)NC(=O)[C@@H](NC(=O)CNC(=O)[C@H](Cc2nn[nH]n2)NC(=O)CCCCCc2cnc[nH]2)[C@@H](C)O)[C@@H](C)O)C(=O)N[C@@H](CCCc2cc(C)cc(C)c2)C(N)=O)cc1 [P11] (X1-[Ala(1H-tetrazol-5-yl)]GT[αMePhe(2-F)]TSD[Bip(2'-Et,4'-O(CH2)4NH2)][Nva(5-(3,5-Me2Ph))]-NH2) | > 57.8 h | 1.1 | > 200 nM | 0.685 nM | 0.8% | 54.8 | 1.03 nM | 54.8 | 0.685 nM | 0.8% | 83.4% | >57.8 h | > 200 nM | 1.1 | 
5 | CCc1cc(OCCCCN)ccc1-c1ccc(C[C@H](NC(=O)[C@H](CC(=O)O)NC(=O)[C@H](CO)NC(=O)[C@@H](NC(=O)[C@](C)(Cc2ccccc2F)NC(=O)[C@@H](NC(=O)CNC(=O)[C@H](Cc2nn[nH]n2)NC(=O)[C@H](C)NC(=O)[C@H](Cc2c[nH]cn2)NC(=O)[C@@H](N)CCC(N)=O)[C@@H](C)O)[C@@H](C)O)C(=O)N[C@@H](CCCc2cc(C)cc(C)c2)C(N)=O)cc1 [P13] (H-QHA[Ala(1H-tetrazol-5-yl)]GT[αMePhe(2-F)]TSD[Bip(2'-Et,4'-O(CH2)4NH2)][Nva(5-(3,5-Me2Ph))]-NH2) | 16.9 h | 1.2 | > 200 nM | 0.357 nM | 1.5% | 69.5 | 0.914 nM | 69.5 | 0.357 nM | 1.5% | 105.6% | 16.9 h | > 200 nM | 1.2 | 
6 | CCc1cc(OCCCCN)ccc1-c1ccc(C[C@H](NC(=O)[C@H](CC(=O)O)NC(=O)[C@H](CO)NC(=O)[C@@H](NC(=O)[C@](C)(Cc2ccccc2F)NC(=O)[C@@H](NC(=O)CNC(=O)[C@H](CCC(N)=O)NC(=O)C(C)(C)C(=O)NCCc2cnc[nH]2)[C@@H](C)O)[C@@H](C)O)C(=O)N[C@@H](CCCc2cc(C)cc(C)c2)C(N)=O)cc1 [P21] |  | 1.3 | > 200 nM | 0.738 nM | 0.7% | 58.8 | 0.427 nM | 58.8 | 0.738 nM | 0.7% | 89.5% | >57.8 h | > 200 nM | 1.3 | > 173 h

Reference: patent US20230330254A1 (Regeneron Pharmaceuticals, Inc., priority 2022, published 2023)
